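A five-concentration, 48-hour dose response in 96-well plates underlies each endpoint, interpolated linearly between surrounding concentrations. GI50 is the concentration that inhibits growth by half. TGI: concentration producing complete growth inhibition.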 A value given as a limit tells only on which side of the number the result lay.

Experimental findings from PubChem BioAssay (NCI) are described below.

Experiment in all cases: inhibition of tumour cell growth, NCI panel, 48 h
Test [1] concerns M14 melanoma.
For test [2], the system named is NCI-H226 lung.
Test [3] relates to SF-539 CNS.
Test [4] concerns SK-MEL-28 melanoma.
Test [5] relates to MDA-MB-231 breast.
In test [6] the test system is HCT-15 colon.
The subject of test [7] is SR leukemia.
The subject of test [8] is MOLT-4 leukemia.
The subject of test [9] is 786-0 renal.
In test [10] the test system is CCRF-CEM leukemia.

In the case of `C/C(=N/NC(=S)Nc1ccccc1)c1nc2ccc(Cl)cc2[nH]1`, the GI50 in test [1] was 0.0763 µM; in test [2], 0.134 µM; in test [3], 0.129 µM; in test [4] it was 0.18 µM; in test [5], 0.205 µM; in [6] it was 0.0656 µM. For the same compound, the GI50 was 0.0881 µM in test [7], 0.086 µM in test [8], 0.0918 µM in test [9] and 0.039 µM in [10]. The TGI in [1] came out at 0.26 µM; in [2] it was 0.925 µM; in test [3] it was 0.686 µM; in test [4] it was 0.872 µM; in [5], 1.79 µM; in test [6], 6.9 µM. Besides, the TGI in test [7] turned out to be 1.23 µM; in [8], 1.1 µM; in [9], 0.368 µM; in [10], 7.18 µM.
As for `CN1CCN(C2=NC(=O)/C(=C\c3ccc(N(C)C)cc3)S2)CC1`, the GI50 in [1] was 3.79 µM; in test [2], > 100 µM; in test [3], > 100 µM; in test [4], > 100 µM; in test [5], 74.5 µM; in [6], > 100 µM. Moreover, the GI50 in [7] was 57.4 µM; in [8] it was 42.2 µM; in test [9] it was > 100 µM; in [10], 38.4 µM. Further, the TGI in test [1], in test [2], in test [3], in test [4], in test [5] and in test [6] was > 100 µM in each case. Moreover, the TGI in test [7], in [8], in test [9] and in [10] was > 100 µM throughout.
With `N=C1CCCC1C(=S)SCCC(N)=O` (stereo not given), the TGI in test [1], in test [2], in test [3], in [4], in test [5] and in [6] was > 100 µM in each case. In addition, the TGI in test [7], in test [8], in test [9] and in [10] was > 100 µM each time.
Regarding `Cc1cccc(C2NC(=O)c3ccccc3N2)c1` (stereo not given), the TGI was > 54.8 µM in test [1]; 50.5 µM in [2]; 9.07 µM in test [3]; > 100 µM in test [4]; > 87.6 µM in test [5]; > 100 µM in test [6]. The TGI in test [7] is > 100 µM; in test [8] it was > 23.9 µM; in test [9], > 100 µM; in test [10], > 100 µM.
As for `O=C1NC(=NCCc2ccc(Cl)cc2)S/C1=C\c1ccc2ncccc2c1`, the GI50 was 25 µM in test [1]; > 25 µM in test [2]; 15.9 µM in test [3]; > 25 µM in test [4]; > 25 µM in [5]; 12.9 µM in test [6]. Also, the GI50 in test [7] was 6.92 µM; in [8], 18.8 µM; in test [9] it was 14.3 µM; in test [10], 12.5 µM. Also, the TGI in [1], in test [2], in [3], in test [4], in test [5] and in test [6] was > 25 µM throughout. In addition, the TGI in [7], in test [8], in [9] and in test [10] was > 25 µM throughout.
On to `OCc1ccc(N(Cc2ccc(F)cc2)Cc2ccc(F)cc2)cc1Cl`, for which the GI50 is 5.79 µM in test [1]; 0.466 µM in [2]; 15.7 µM in test [3]; 13.9 µM in test [4]; 11.8 µM in test [5]; 9.88 µM in [6]. Further, the GI50 in test [7] is 5.51 µM; in test [8], 7.84 µM; in test [9], 11.6 µM; in [10] it was 13.1 µM. Further, the TGI in test [1] came to 20.2 µM; in [2] it was 2.03 µM; in [3], 30 µM; in [4], 27.6 µM; in [5], 25.9 µM; in [6], 24.2 µM. The TGI in test [7] amounted to 24.4 µM; in test [8], 30.1 µM; in test [9], 25.5 µM; in test [10] it was 33.9 µM.
As for `CN(C)CCC(=O)Nc1ccc(-n2cc(-c3cccc(NC(=S)Nc4cccc(-c5cn(-c6ccc(NC(=O)CCN(C)C)cc6)nn5)c4)c3)nn2)cc1`, the GI50 in test [1] was 49.5 µM; in [2], 35.3 µM; in test [3], 28.1 µM; in test [4], 24.5 µM; in [5] it was 27.2 µM; in [6], > 100 µM. Also, the GI50 in [7] was 26.2 µM; in test [8], 20.7 µM; in test [9] it was > 100 µM; in test [10] it was 21.4 µM. The TGI in test [1] was > 100 µM; in test [2], > 100 µM; in [3], 78.2 µM; in [4] it was 53.4 µM; in [5], 58.5 µM; in test [6], > 100 µM. The TGI in test [7] is > 100 µM; in [8] it was 84.6 µM; in [9], > 100 µM; in [10], 78.3 µM.
For the compound `COc1ccc(-n2c(=S)sc3c(Cl)nc(C)nc32)c(OC)c1`, the GI50 in [1] is 1.84 µM; in test [2], 3.22 µM; in test [3] it was 2.07 µM; in test [4] it was 2.18 µM; in test [5], 3.16 µM; in [6], 1.96 µM. Also, the GI50 was 1.42 µM in test [7], 2.12 µM in test [8], 4.42 µM in [9] and 2.66 µM in [10]. In addition, the TGI is 4.05 µM in test [1]; 12 µM in test [2]; 4.55 µM in [3]; 4.6 µM in test [4]; 10.3 µM in test [5]; 5.43 µM in [6]. Moreover, the TGI in test [7] was found to be 5.52 µM; in test [8], 5.48 µM; in [9], 20.4 µM; in test [10], 7.45 µM.
